pIC50, pKi: −log10 of the molar value. Counter-ions that a name gives are not always drawn.
Tests used:
[1] = target: T1, 5-hydroxytryptamine receptor 6 (Homo sapiens, UniProt P50406); assay: Displacement of [3H]-LSD from human 5-HT6 receptor expresssed in stable HEK cell membrane incubated for 90 mins by microbeta counting method
[2] = target: T2, 5-hydroxytryptamine receptor 7 (Homo sapiens, UniProt P34969); assay: biochemical
Description: (§2) Displacement of [3H]-LSD from human 5-HT7A receptor expresssed in stable HEK cell membrane incubated for 90 mins by microbeta counting method

[3] = target: T3, 5-hydroxytryptamine receptor 1A (Homo sapiens, UniProt P08908); assay: biochemical
T3 sequence (P08908 whole entry): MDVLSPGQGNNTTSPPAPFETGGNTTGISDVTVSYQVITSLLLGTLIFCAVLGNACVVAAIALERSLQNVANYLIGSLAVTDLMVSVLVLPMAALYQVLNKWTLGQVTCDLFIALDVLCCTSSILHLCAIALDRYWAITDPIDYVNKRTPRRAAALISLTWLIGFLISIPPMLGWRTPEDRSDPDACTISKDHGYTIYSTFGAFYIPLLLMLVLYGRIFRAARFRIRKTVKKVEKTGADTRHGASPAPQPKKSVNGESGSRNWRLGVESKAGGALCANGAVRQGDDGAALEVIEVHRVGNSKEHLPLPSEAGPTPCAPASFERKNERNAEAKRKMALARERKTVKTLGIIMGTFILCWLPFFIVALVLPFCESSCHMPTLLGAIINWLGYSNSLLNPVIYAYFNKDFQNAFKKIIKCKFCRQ
Description: (§3) Displacement of [3H]-WAY100635 from human 5-HT1A receptor expresssed in stable CHO cell membrane incubated for 90 mins by microbeta counting method

[4] = target: 5-hydroxytryptamine receptor 2A (Homo sapiens, UniProt P28223); settings: for pKi: read-out: Ki;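 as to all read-outs here: [3H]-Ketanserin displacement from the 5-HT2A receptor after 90 min incubation, with bound label read by MicroBeta counting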
Description: Displacement of [3H]-Ketanserin from 5-HT2A receptor (unknown origin) incubated for 90 mins by microbeta counting method

[5] = target: T1, 5-hydroxytryptamine receptor 6
[6] = target: T1, 5-hydroxytryptamine receptor 6; assay: biochemical
D(2) dopamine receptor [7] = target: T4, D(2) dopamine receptor (Homo sapiens, UniProt P14416); assay: Displacement of [3H]-N-Methylspiperone from human dopamine D2 receptor expressed in stable fibroblast cells incubated for 90 mins by microbeta counting method
D(3) dopamine receptor = D(3) dopamine receptor (Homo sapiens, UniProt P35462)
Description: Displacement of [3H]-N-Methylspiperone from dopamine D3 receptor (unknown origin) incubated for 90 mins by microbeta counting method

D(2) dopamine receptor [8] = target: T4, D(2) dopamine receptor; settings: fibroblast
D(1B) dopamine receptor = D(1B) dopamine receptor (Homo sapiens, UniProt P21918); assay: Binding affinity to human dopamine D5 receptor expressed in HEKT cells incubated for 90 mins by microbeta counting method; assay type: cell-based
Homo sapiens = organism: Homo sapiens; assay: Selectivity index, ratio of Ki for human 5-HT7A receptor expressed in stable HEK cell membrane to Ki for human 5-HT1A receptor expresssed in stable CHO cell membrane incubated for 90 mins by microbeta counting method; assay type: cell-based
D(1A) dopamine receptor [9] = target: T5, D(1A) dopamine receptor (Homo sapiens, UniProt P21728)
D(4) dopamine receptor = target: T6, D(4) dopamine receptor (Homo sapiens, UniProt P21917); assay: (§1) Displacement of [3H]-N-Methylspiperone from human dopamine D4 receptor expressed in stable HEK cells incubated for 90 mins by microbeta counting method; assay type: cell-based
T6 sequence (P21917 whole entry): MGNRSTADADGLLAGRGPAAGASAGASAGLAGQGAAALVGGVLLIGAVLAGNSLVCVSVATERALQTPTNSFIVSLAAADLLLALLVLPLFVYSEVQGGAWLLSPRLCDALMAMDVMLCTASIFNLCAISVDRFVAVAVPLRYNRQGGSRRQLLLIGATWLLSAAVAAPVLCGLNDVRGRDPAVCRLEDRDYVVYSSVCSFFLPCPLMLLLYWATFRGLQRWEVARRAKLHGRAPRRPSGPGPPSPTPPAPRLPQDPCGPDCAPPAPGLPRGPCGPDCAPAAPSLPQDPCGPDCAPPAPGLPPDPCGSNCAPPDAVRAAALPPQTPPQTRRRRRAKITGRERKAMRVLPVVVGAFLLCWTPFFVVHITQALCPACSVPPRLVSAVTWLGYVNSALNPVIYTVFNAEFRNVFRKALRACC

[10] = target: T7, D(4) dopamine receptor (Homo sapiens) (UniProt P21917); assay: as §1; assay type: cell-based
T7 sequence (whole entry): T6 sequence (P21917 whole entry)

D(1A) dopamine receptor [11] = target: T5, D(1A) dopamine receptor; assay: Displacement of [3H]-SCH23390 from human dopamine D1 receptor expressed in HEKT cells incubated for 90 mins by microbeta counting method
[12] = target: T3, 5-hydroxytryptamine receptor 1A; settings: cho
Description: as §3

[13] = target: T8, 5-hydroxytryptamine receptor 1A (Homo sapiens) (UniProt P08908); settings: CHO
T8 sequence (whole entry): T3 sequence (P08908 whole entry)
Description: as §3

[14] = target: T2, 5-hydroxytryptamine receptor 7
Description: as §2

[15] = target: T2, 5-hydroxytryptamine receptor 7; remark: listed apart in the source
Description: as §2

D(1A) dopamine receptor [16] = target: T5, D(1A) dopamine receptor; assay: biochemical
D(2) dopamine receptor [17] = target: T4, D(2) dopamine receptor; assay: biochemical
[18] = target: T2, 5-hydroxytryptamine receptor 7; assay: Antagonist activity at human recombinant 5-HT7 receptor expressed in CHOK1 Hunter cell preincubated for 30 mins followed by incubation with agonist for 30 to 60 mins by hit-hunter cAMP assay based chemiluminescence analysis; assay type: functional, CHO-K1

T4 sequence (P14416 whole entry): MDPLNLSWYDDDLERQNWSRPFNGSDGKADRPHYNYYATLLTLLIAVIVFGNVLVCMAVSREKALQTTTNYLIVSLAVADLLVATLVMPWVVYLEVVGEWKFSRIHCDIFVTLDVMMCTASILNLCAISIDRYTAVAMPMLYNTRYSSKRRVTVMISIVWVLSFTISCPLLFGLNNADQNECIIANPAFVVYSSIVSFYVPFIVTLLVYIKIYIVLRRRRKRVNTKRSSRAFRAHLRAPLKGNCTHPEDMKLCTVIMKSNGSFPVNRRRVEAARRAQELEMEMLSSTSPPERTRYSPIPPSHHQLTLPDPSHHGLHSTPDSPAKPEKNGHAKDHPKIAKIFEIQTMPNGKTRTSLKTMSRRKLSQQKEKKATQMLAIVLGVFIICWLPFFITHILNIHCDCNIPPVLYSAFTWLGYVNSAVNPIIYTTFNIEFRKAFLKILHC
T1 sequence (P50406 whole entry): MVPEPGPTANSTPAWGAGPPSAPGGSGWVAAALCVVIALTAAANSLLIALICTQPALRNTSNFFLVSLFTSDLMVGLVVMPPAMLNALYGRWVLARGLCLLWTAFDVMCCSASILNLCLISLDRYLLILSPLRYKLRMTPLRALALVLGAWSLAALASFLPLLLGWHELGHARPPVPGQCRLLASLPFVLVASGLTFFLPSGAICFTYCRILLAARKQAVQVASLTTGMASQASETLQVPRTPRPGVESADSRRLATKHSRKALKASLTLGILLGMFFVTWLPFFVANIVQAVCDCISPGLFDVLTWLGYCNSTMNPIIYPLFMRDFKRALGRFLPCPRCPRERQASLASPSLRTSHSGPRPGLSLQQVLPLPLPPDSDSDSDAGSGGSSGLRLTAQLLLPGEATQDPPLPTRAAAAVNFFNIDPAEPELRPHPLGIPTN
Sequence of 5-hydroxytryptamine receptor 2A (P28223 whole entry): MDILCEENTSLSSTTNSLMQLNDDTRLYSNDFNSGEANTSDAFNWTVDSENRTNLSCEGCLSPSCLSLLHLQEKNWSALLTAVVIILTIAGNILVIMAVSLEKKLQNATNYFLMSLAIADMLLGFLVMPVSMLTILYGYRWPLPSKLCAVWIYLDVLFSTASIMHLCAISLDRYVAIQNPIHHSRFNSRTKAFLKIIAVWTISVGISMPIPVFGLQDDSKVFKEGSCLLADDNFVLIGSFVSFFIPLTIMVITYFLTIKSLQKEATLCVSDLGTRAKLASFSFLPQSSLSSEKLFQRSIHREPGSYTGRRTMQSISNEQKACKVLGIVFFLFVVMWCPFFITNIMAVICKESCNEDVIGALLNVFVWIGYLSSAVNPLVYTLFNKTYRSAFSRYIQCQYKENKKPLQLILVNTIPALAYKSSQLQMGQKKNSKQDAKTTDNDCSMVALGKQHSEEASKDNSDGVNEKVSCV
Sequence of D(1B) dopamine receptor (P21918 whole entry): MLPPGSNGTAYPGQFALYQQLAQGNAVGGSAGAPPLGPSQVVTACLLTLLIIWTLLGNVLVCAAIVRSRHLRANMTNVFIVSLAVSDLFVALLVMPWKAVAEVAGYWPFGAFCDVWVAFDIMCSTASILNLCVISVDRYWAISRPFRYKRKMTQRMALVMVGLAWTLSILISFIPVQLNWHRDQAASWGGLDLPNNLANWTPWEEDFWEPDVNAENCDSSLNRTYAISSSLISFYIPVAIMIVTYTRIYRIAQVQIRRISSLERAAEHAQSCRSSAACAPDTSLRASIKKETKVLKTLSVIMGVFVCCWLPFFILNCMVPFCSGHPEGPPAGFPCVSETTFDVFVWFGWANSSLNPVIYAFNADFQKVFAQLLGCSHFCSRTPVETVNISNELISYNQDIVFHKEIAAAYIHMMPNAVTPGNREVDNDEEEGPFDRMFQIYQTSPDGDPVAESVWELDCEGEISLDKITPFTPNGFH
T5 sequence (P21728 whole entry): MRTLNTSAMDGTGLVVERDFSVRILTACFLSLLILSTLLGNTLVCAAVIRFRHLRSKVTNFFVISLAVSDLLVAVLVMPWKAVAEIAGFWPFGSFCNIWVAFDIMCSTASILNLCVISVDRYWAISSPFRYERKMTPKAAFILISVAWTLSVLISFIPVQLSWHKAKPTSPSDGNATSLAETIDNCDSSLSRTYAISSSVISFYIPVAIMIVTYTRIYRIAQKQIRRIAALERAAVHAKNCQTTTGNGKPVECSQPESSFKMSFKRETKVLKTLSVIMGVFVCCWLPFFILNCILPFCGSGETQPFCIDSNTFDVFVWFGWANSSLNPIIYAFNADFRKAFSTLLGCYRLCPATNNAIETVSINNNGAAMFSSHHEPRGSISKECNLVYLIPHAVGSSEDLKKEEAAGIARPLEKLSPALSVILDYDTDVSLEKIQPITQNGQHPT
Sequence of D(3) dopamine receptor (P35462 whole entry): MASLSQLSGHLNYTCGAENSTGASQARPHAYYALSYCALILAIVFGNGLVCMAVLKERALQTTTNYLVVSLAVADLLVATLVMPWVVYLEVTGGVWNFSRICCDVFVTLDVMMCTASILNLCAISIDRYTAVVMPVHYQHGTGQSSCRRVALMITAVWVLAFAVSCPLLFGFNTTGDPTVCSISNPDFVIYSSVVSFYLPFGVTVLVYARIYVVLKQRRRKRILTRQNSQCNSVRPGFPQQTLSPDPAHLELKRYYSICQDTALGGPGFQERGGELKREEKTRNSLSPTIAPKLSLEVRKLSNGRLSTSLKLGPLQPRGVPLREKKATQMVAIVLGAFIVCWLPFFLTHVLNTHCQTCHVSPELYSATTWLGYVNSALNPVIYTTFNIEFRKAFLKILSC
T2 sequence (P34969 whole entry): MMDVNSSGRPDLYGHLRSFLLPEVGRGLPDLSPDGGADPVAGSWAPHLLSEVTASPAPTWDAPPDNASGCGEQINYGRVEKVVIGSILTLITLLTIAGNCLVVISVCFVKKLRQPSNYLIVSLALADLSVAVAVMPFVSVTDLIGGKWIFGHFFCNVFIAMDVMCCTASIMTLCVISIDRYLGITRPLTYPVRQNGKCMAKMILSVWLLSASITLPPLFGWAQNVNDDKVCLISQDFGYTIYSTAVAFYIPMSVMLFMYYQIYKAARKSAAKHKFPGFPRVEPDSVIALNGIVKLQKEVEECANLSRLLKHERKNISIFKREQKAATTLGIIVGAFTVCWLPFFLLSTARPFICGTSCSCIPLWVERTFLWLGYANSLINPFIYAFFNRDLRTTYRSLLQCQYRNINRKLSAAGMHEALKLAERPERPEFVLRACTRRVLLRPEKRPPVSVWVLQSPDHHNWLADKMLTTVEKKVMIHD

Row | Compound | inhibition [1] | pKi [2] | pKi [3] | Ki [4] | Ki [5] | pKi [6] | pKi [4] | other results
1 | CCCN1CCc2cccc3c2C1Cc1ccc(N)cc1-3 (stereo not given) | < 50% | 7.20 | 7.52 | Not Active | Not Active | – | – | –
2 | C#CCOc1c(OC)cc2c3c1-c1cc(NS(C)(=O)=O)ccc1CC3N(C)CC2 (racemic) | – | 7.51 | 6.29 | – | – | 6.66 | 5.88 | –
3 | CCCN1CCc2cccc3c2C1Cc1cc2sc(N)nc2cc1-3 (racemic) | < 50% | 6.88 | 8.12 | Not Active | Not Active | – | – | inhibition (D(2) dopamine receptor [7]): < 50%; pKi (D(3) dopamine receptor): 5.68; Ki (D(2) dopamine receptor [8]): Not Active; Ki (D(1B) dopamine receptor): Not Active; inhibition (D(1B) dopamine receptor): < 50%; Ratio Ki (Homo sapiens): 17; Ki (D(1A) dopamine receptor [9]): Not Active; Ki (D(4) dopamine receptor): Not Active; inhibition [10]: < 50%; inhibition (D(1A) dopamine receptor [11]): < 50%
4 | COc1cc2c3c(c1OCC1CC1)-c1cc(NC(C)=O)ccc1CC3N(C)CC2 (racemic) | – | 6.20 | 5.81 | – | – | 5.82 | 6.01 | –
5 | CN1CCc2cccc3c2C1Cc1cc2sc(N)nc2cc1-3 (racemic) | – | – | 7.64 | Not Active | Not Active | – | – | Ki (D(2) dopamine receptor [8]): Not Active; Ki (D(1B) dopamine receptor): Not Active; Ki (D(1A) dopamine receptor [9]): Not Active; Ki (D(4) dopamine receptor): Not Active
6 | CCCN1CCc2cccc3c2C1Cc1ccc(N(C)C)cc1-3 (racemic) | < 50% | 6.01 | 6.59 | Not Active | Not Active | – | – | –
7 | COc1cc2c3c(c1OCC1CC1)-c1cc(NC(N)=O)ccc1CC3N(C)CC2 (racemic) | – | 6.45 | 5.89 | – | – | 6.28 | 6.07 | –
8 | COc1cc2c3c(c1OC)-c1cc(NC(N)=O)ccc1CC3N(C)CC2 (racemic) | – | 6.54 | – | Not Active | – | 6.38 | – | Ki [12]: Not Active; inhibition [13]: < 50%
9 | CCCC(=O)Nc1ccc2c(c1)-c1cccc3c1C(C2)N(CCC)CC3 (racemic) | < 50% | 6.51 | 7.82 | Not Active | Not Active | – | – | –
10 | CN1CCc2cccc3c2C1Cc1ccc(NC(N)=O)cc1-3 (racemic) | – | – | 7.31 | Not Active | Not Active | – | – | pKi (D(3) dopamine receptor): 5.61; Ki (D(2) dopamine receptor [8]): Not Active; Ki (D(1B) dopamine receptor): Not Active; Ki (D(1A) dopamine receptor [9]): Not Active; Ki (D(4) dopamine receptor): Not Active
11 | C#CCOc1c(OC)cc2c3c1-c1cc(NC(=O)CCC)ccc1CC3N(C)CC2 (racemic) | – | 6.34 | 6.18 | – | – | 6.45 | 5.98 | –
12 | CN(C)c1ccc2c(c1)-c1cccc3c1C(C2)N(C)CC3 (racemic) | – | 7.77 | 6.34 | – | – | 5.80 | 6.25 | –
13 | CCCN1CCc2cccc3c2C1Cc1ccc(NC(C)=O)cc1-3 (racemic) | < 50% | – | 7.68 | Not Active | Not Active | – | – | Ki [14]: Not Active; inhibition [15]: < 50%
14 | COc1cc2c3c(c1OCC1CC1)-c1cc(N)ccc1CC3N(C)CC2 (racemic) | – | 6.98 | – | – | – | 6.88 | 6.96 | Ki [12]: Not Active; inhibition [13]: < 50%
15 | CCCN1CCc2cccc3c2C1Cc1ccc(NC(N)=O)cc1-3 (racemic) | < 50% | – | 6.63 | Not Active | Not Active | – | – | Ki [14]: Not Active; inhibition [15]: < 50%
16 | C=CCOc1c(OC)cc2c3c1-c1cc(NC(=O)CCC)ccc1CC3N(C)CC2 (racemic) | – | 6.73 | 6.33 | – | – | 6.70 | 6.35 | –
17 | COc1cc2c3c(c1OCC1CC1)-c1cc(NS(C)(=O)=O)ccc1CC3N(C)CC2 (racemic) | – | 6.94 | 6.41 | – | – | 6.30 | 6.36 | –
18 | C#CCOc1c(OC)cc2c3c1-c1cc(NC(N)=O)ccc1CC3N(C)CC2 (racemic) | – | 6.91 | 6.04 | Not Active | – | 6.39 | – | –
19 | COc1cc2c3c(c1OC)-c1cc(NS(C)(=O)=O)ccc1CC3N(C)CC2 (racemic) | – | 7.05 | – | Not Active | – | 7.07 | – | Ki [12]: Not Active; inhibition [13]: < 50%
20 | CN1CCc2cccc3c2C1Cc1ccc2nc(N)sc2c1-3 (racemic) | < 50% | 8.00 | 6.73 | – | Not Active | – | 5.98 | pKi (D(1A) dopamine receptor [16]): 5.94; pKi (D(3) dopamine receptor): 6.42; pKi (D(2) dopamine receptor [17]): 5.76; Ki (D(1B) dopamine receptor): Not Active; inhibition (D(1B) dopamine receptor): < 50%; pKi (D(4) dopamine receptor; read-out: Ki): 6.32
21 | CCCC(=O)Nc1ccc2c(c1)-c1c(OCC3CC3)c(OC)cc3c1C(C2)N(C)CC3 (racemic) | – | 6.40 | 6.37 | – | – | 6.49 | 6.18 | –
22 | CCCN1CCc2cccc3c2C1Cc1ccc(NS(C)(=O)=O)cc1-3 (racemic) | < 50% | 6.70 | 7.64 | Not Active | Not Active | – | – | –
23 | C=CCOc1c(OC)cc2c3c1-c1cc(NS(C)(=O)=O)ccc1CC3N(C)CC2 (racemic) | – | 7.38 | 6.39 | – | – | 6.23 | 6.18 | –
24 | COc1cc2c3c(c1OC)-c1cc(N(C)C)ccc1CC3N(C)CC2 (racemic) | – | 7.14 | 5.80 | – | – | 6.90 | 6.53 | –
25 | C=CCOc1c(OC)cc2c3c1-c1cc(N(C)C)ccc1CC3N(C)CC2 (racemic) | – | 6.51 | – | – | – | 6.99 | 6.50 | Ki [12]: Not Active; inhibition [13]: < 50%
26 | COc1cc2c3c(c1OCC1CC1)-c1cc(N(C)C)ccc1CC3N(C)CC2 (racemic) | – | 6.12 | 5.84 | – | – | 6.48 | 6.06 | –
27 | CN1CCc2cccc3c2C1Cc1ccc(NS(C)(=O)=O)cc1-3 (racemic) | < 50% | 7.57 | 6.88 | Not Active | Not Active | – | – | –
28 | CCCN1CCc2cccc3c2C1Cc1ccc2nc(N)sc2c1-3 (racemic) | < 50% | – | 7.03 | Not Active | Not Active | – | – | –
29 | CCCC(=O)Nc1ccc2c(c1)-c1c(OC)c(OC)cc3c1C(C2)N(C)CC3 (racemic) | – | 7.17 | 6.33 | – | – | 6.45 | 6.38 | –
30 | O=C(CCCN1CCC2(CC1)C(=O)NCN2c1ccccc1)c1ccc(F)cc1 [SPIPERONE HYDROCHLORIDE] | – | – | – | – | – | – | – | pIC50 [18]: 6.51
